Like-named read-outs stand apart in the source and are kept apart here.
Tests used:
[1] = system: T. cruzi epimastigotes, Arequipa strain; test: Screening against extracellular epimastigotes, Arequipa strain; type: cell-based, Trypanosoma cruzi
[2] = system: T. cruzi epimastigotes, SN3 strain; test: Screening against extracellular epimastigotes, SN3 strain; type: cell-based, Trypanosoma cruzi
[3] = system: T. cruzi epimastigotes, Tulahuen strain; test: Screening against extracellular epimastigotes, Tulahuen strain; type: cell-based, Trypanosoma cruzi
Vero cells = test: Cytotoxicity test on Vero cells; type: cell-based; settings: Chlorocebus sabaeus, 48 h + 24 h resazurin, read-out: Toxicity IC50 Vero cell
[4] = system: T. cruzi amastigotes, Arequipa strain; test: Screening against intracellular amastigotes, Arequipa strain; type: cell-based, Trypanosoma cruzi
[5] = system: T. cruzi amastigotes, SN3 strain; test: Screening against intracellular amastigotes, SN3 strain; type: cell-based, Trypanosoma cruzi
[6] = system: T. cruzi amastigotes, Tulahuen strain; test: Screening against intracellular amastigotes, Tulahuen strain; type: cell-based, Trypanosoma cruzi
[7] = system: T. cruzi trypomastigotes, Arequipa strain; test: Screening against bloodstream trypomastigotes, Arequipa strain; type: cell-based, Trypanosoma cruzi
[8] = system: T. cruzi trypomastigotes, SN3 strain; test: Screening against bloodstream trypomastigotes, SN3 strain; type: cell-based, Trypanosoma cruzi
[9] = system: T. cruzi trypomastigotes, Tulahuen strain; test: Screening against bloodstream trypomastigotes, Tulahuen strain; type: cell-based, Trypanosoma cruzi
[10] = system: Vero cells infected with T. cruzi Arequipa strain; test: Infection rate in Vero cells (infected cells), Arequipa strain; type: cell-based; settings: Trypanosoma cruzi, 72 h of treatment
T. cruzi Arequipa strain = test: In vivo trypanocidal activity on BALB/c mice (acute and chronic Chagas disease); set-up: species or system Trypanosoma cruzi
Experimental: (§1) Female BALB/c mice aged 10–12 weeks and with a size of 20–24 g were divided into five groups (n = 3 per group): 0, negative control group (uninfected and untreated mice); I, positive control group (infected and untreated mice); II, BZN group (infected mice treated with BZN); III, 26 group (infected mice treated with 26); and IV, 28 group (infected mice treated with 28).
Mice were infected by intraperitoneal injection of 5 × 10^5 BTs of T. cruzi Arequipa strain per mouse in 200 μL PBS.[42] Subsequently, the treatment was intraperitoneally administered (∼200 μL) once daily for 5 consecutive days.
(§2) The tested selenocompounds and BZN were prepared at 2 mg·mL^–1 in an aqueous suspension vehicle containing 5% (v/v) DMSO and 0.5% (w/v) hydroxypropyl methylcellulose, as previously reported.[52] Compounds (20 mg·kg^–1 per day) were administered for 5 consecutive days (total dosages of 100 mg·kg^–1), and vehicle only was administered in the negative and positive control groups. Treatments began when the infection was confirmed (9 dpi) for acute-phase-treated mice, and when it was established that the animals moved into the chronic phase (100 dpi, for chronic-phase-treated mice; Scheme 1).
[…]. Parasitemia was expressed as parasites·mL^–1.
Immunosuppression was performed by intraperitoneal injection of three doses of 200 mg·kg^–1 of ISOPAC CP at 3–4 day intervals (Scheme 1), as previously reported.[53] Mice were closely monitored for side effects or for secondary infections due to immunosuppression. Within 7 days after the last CP injection, parasitemia reactivation was determined by counting BTs according the procedure described for parasitemia in the acute phase.[42]
On 145 dpi, the mice were euthanized using CO2, followed by exsanguination via cardiac puncture, and blood was collected. […]. In addition, spleens were weighed to assess splenomegaly.[42]
DNA extraction of the post-mortem organs/tissues was performed using Wizard Genomic DNA Purification Kit,[41] and the extracted DNA was subjected to amplification by PCR based on the spliced leader (SL) intergenic region sequence of T. cruzi (for detailed description, see literature reported previously).[55] Finally, the PCR products were resolved by electrophoresis on a 2% agarose gel (containing GelRed nucleic gel stain) for 90 min at 90 V.
Circulating antibodies in serum against both antigens were quantitatively evaluated in triplicate by the ELISA test in 96-well plates using diluted serum samples (1:80 in PBS), as previously described.[41]

[11] = type: in vivo, BALB/c mice; settings: variation vs control
Experimental: as §1, §2
Serum samples obtained from blood in several days post-infection (Scheme 1) were sent to the Biochemical Service (University of Granada) to measure a series of biochemical parameters with the commercial Cromakit using a clinical chemistry analyzer (BS-200, Shenzhen Mindray Biomedical Electronics Co., LTD), as previously described.[41]

[12] = system: epimastigotes of T. cruzi Arequipa strain; test: Flow cytometry analysis of nucleic acid levels (acridine orange); type: cell-based, Trypanosoma cruzi; settings: IC25 concentrations, 72 h
Trypanosoma cruzi Fe-SOD = test: SOD enzymatic inhibition, Fe-SOD; type: biochemical
[13] = molecular target: T1, human erythrocytes CuZn-SOD (Homo sapiens, UniProt P00441); test: SOD enzymatic inhibition, CuZn-SOD; type: biochemical
T1 construct: commercial copper/zinc superoxide dismutase (Cu/Zn-SOD) from human erythrocytes (Sigma-Aldrich); purchased Sigma-Aldrich; host or cells: human erythrocytes (natural source)

[14] = IC50 Vero cells/IC50 epimastigotes
[15] = IC50 Vero cells/IC50 amastigotes
[16] = IC50 Vero cells/IC50 trypomastigotes
[17] = 20 mg·kg–1 per day i.p. 5 days from 9 dpi
[18] = 20 mg·kg–1 per day i.p. 5 days from 100 dpi
[19] = 20 mg·kg–1 per day i.p. for 5 days from 9 dpi
[20] = treatment in acute phase, 15th dpi (2 days after treatment)
[21] = treatment in acute phase, necropsy day
[22] = treatment in chronic phase, 106th dpi (2 days after treatment)
[23] = treatment in chronic phase, necropsy day

T1 sequence (P00441 whole entry): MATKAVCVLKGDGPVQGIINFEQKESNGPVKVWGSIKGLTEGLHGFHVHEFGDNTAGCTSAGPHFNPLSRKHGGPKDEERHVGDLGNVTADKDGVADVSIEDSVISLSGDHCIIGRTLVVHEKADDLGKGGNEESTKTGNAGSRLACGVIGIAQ

With `N#C[Se]c1ccc(NC(=O)c2ccc(C(F)(F)F)cc2)cc1` [Compound 26] the “Selectivity index (SI), epimastigotes, Arequipa strain” value [1, 14] was 84, the IC50 ([1]; Trypanosoma cruzi, 48 h + 24 h resazurin, read-out: Activity IC50, epimastigote form, Arequipa strain) was 1.6 ± 0.3 µM and the “Selectivity index (SI), epimastigotes, SN3 strain” value [2, 14] was 64. For the same molecule, the IC50 ([2]; Trypanosoma cruzi, 48 h + 24 h resazurin, read-out: Activity IC50, epimastigote form, SN3 strain) was 2.1 ± 0.3 µM, the “Selectivity index (SI), epimastigotes, Tulahuen strain” value [3, 14] was 52 and the IC50 ([3]; Trypanosoma cruzi, TULAHUEN, 48 h + 24 h resazurin, read-out: Activity IC50, epimastigote form, Tulahuen strain) was 2.6 ± 0.4 µM. The CC50 (Vero cells) was 134 ± 11.3 µM, the “selectivity index (SI), Arequipa strain, am. forms” value [4, 15] was 25 and the IC50 ([4]; Trypanosoma cruzi, amastigotes in Vero cells, 72 h, read-out: activity IC50, Arequipa strain, am. forms) was 5.4 ± 0.7 µM. The “selectivity index (SI), SN3 strain, am. forms” value [5, 15] was 34, the IC50 ([5]; Trypanosoma cruzi, amastigotes in Vero cells, 72 h, read-out: activity IC50, SN3 strain, am. forms) was 3.9 ± 0.5 µM and the “selectivity index (SI), Tulahuen strain, am. forms” value [6, 15] was 27. The IC50 ([6]; Trypanosoma cruzi, TULAHUEN, amastigotes in Vero cells, 72 h, read-out: activity IC50, Tulahuen strain, am. forms) was 4.9 ± 0.3 µM, the “selectivity index (SI), Arequipa strain, trypom. forms” value [7, 16] was 56 and the IC50 ([7]; Trypanosoma cruzi, bloodstream trypomastigotes, 24 h + 4 h resazurin, read-out: activity IC50, Arequipa strain, trypom. forms) was 2.4 ± 0.3 µM. The “selectivity index (SI), SN3 strain, trypom. forms” value [8, 16] was 52, the IC50 ([8]; Trypanosoma cruzi, bloodstream trypomastigotes, 24 h + 4 h resazurin, read-out: activity IC50, SN3 strain, trypom. forms) was 2.5 ± 0.3 µM and the “selectivity index (SI), Tulahuen strain, trypom. forms” value [9, 16] was 46. For the same molecule, the IC50 ([9]; Trypanosoma cruzi, TULAHUEN, bloodstream trypomastigotes, 24 h + 4 h resazurin, read-out: activity IC50, Tulahuen strain, trypom. forms) was 2.9 ± 0.2 µM, the IC50 [10] was 22.4 µM and the “anti-T. cruzi IgG levels (ELISA), acute phase treatment” value (T. cruzi Arequipa strain; [17]) was “lower IgG values than the treated with BZN at the beginning of the treatment”. For the same molecule, the “splenomegaly reduction in comparison with untreated mice, acute phase treatment” value (T. cruzi Arequipa strain; [17]) was 49%, the “parasitaemia reactivation after immunosuppression, acute phase treatment” value (T. cruzi Arequipa strain; 20 mg·kg–1 per day i.p. 5 days from 9 dpi, compared to untreated group) was “approximately 65%” and the “parasite-free organs/tissues by PCR, acute phase treatment” value (T. cruzi Arequipa strain; 20 mg·kg–1 per day i.p. 5 days from 9 dpi, necropsy 145 dpi) was 42.9%. For the same molecule, the “anti-T. cruzi IgG levels (ELISA), chronic phase treatment” value (T. cruzi Arequipa strain; [18]) was “similar”, the “splenomegaly reduction in comparison with untreated mice, chronic phase treatment” value (T. cruzi Arequipa strain; [18]) was 38% and the “parasitaemia reactivation after immunosuppression, chronic phase treatment” value (T. cruzi Arequipa strain; 20 mg·kg–1 per day i.p. 5 days from 100 dpi, compared to untreated group) was ~60%. For the same molecule, the “parasite-free organs/tissues by PCR, chronic phase treatment” value (T. cruzi Arequipa strain; 20 mg·kg–1 per day i.p. 5 days from 100 dpi, necropsy 145 dpi) was 42.9%, the “day at which parasitaemia was resolved” value (T. cruzi Arequipa strain; [19]) was 48 dpi and the “parasitaemia profile during the acute phase” value (T. cruzi Arequipa strain; [19]) was “better activity profile compared to that of BZN”. For the same molecule, the “ALP (liver marker)” value [11, 20] was “+ (+/-, 10-20% increase/decrease over the range)”, the “ALT/GPT (liver marker)” value [11, 20] was “++ (++/--, 20-30% increase/decrease over the range)” and the “AST/GOT (liver marker)” value [11, 20] was “++ (++/--, 20-30% increase/decrease over the range)”. The “CK-MB (heart marker)” value [11, 20] was “++++ (++++/----, ˃ 40% increase/decrease over the range)”, the “LDH (heart marker)” value [11, 20] was “+ (+/-, 10-20% increase/decrease over the range)” and the “Total bilirubin (liver marker)” value [11, 20] was “++ (++/--, 20-30% increase/decrease over the range)”. For the same molecule, the “Urea (kidney marker)” value [11, 20] was “-- (++/--, 20-30% increase/decrease over the range)”, the “Uric acid (kidney marker)” value [11, 20] was “---- (++++/----, ˃ 40% increase/decrease over the range)” and the “ALP (liver marker)” value [11, 21] was “++ (++/--, 20-30% increase/decrease over the range)”. The “ALT/GPT (liver marker)” value [11, 21] was “++ (++/--, 20-30% increase/decrease over the range)”, the “AST/GOT (liver marker)” value [11, 21] was “= (=, variation ≤ 10%)” and the “CK-MB (heart marker)” value [11, 21] was “= (=, variation ≤ 10%)”. For the same molecule, the “LDH (heart marker)” value [11, 21] was “= (=, variation ≤ 10%)”, the “Total bilirubin (liver marker)” value [11, 21] was “+ (+/-, 10-20% increase/decrease over the range)” and the “Urea (kidney marker)” value [11, 21] was “= (=, variation ≤ 10%)”. The “Uric acid (kidney marker)” value [11, 21] was “= (=, variation ≤ 10%)”, the “ALP (liver marker)” value [11, 22] was “= (=, variation ≤ 10%)” and the “ALT/GPT (liver marker)” value [11, 22] was “++ (++/--, 20-30% increase/decrease over the range)”. The “AST/GOT (liver marker)” value [11, 22] was “+++ (+++/---, 30-40% increase/decrease over the range)”, the “CK-MB (heart marker)” value [11, 22] was “+ (+/-, 10-20% increase/decrease over the range)” and the “LDH (heart marker)” value [11, 22] was “= (=, variation ≤ 10%)”. The “Total bilirubin (liver marker)” value [11, 22] was “+++ (+++/---, 30-40% increase/decrease over the range)”, the “Urea (kidney marker)” value [11, 22] was “--- (+++/---, 30-40% increase/decrease over the range)” and the “Uric acid (kidney marker)” value [11, 22] was “- (+/-, 10-20% increase/decrease over the range)”. For the same molecule, the “ALP (liver marker)” value [11, 23] was “= (=, variation ≤ 10%)”, the “ALT/GPT (liver marker)” value [11, 23] was “= (=, variation ≤ 10%)” and the “AST/GOT (liver marker)” value [11, 23] was “= (=, variation ≤ 10%)”. For the same molecule, the “CK-MB (heart marker)” value [11, 23] was “+ (+/-, 10-20% increase/decrease over the range)”, the “LDH (heart marker)” value [11, 23] was “= (=, variation ≤ 10%)” and the “Total bilirubin (liver marker)” value [11, 23] was “++ (++/--, 20-30% increase/decrease over the range)”. For the same molecule, the “Urea (kidney marker)” value [11, 23] was “= (=, variation ≤ 10%)”, the “Uric acid (kidney marker)” value [11, 23] was “- (+/-, 10-20% increase/decrease over the range)” and the “inhibition of nucleic acid levels” value [12] was 47%. For the same molecule, the IC50 (Trypanosoma cruzi Fe-SOD) was 51.9 µM and the IC50 [13] was > 100 µM.
